Laboratory results: the supplement of paper PMC12533247
± gives the standard deviation of the averaged measurements.

How the values were obtained:
[1] = test system: HSV-1 K26-GFP infected 3D skin equivalent; assay: % activity on HSV-1 GFP signal (0 = infected DMSO control, -100 = uninfected control); higher = higher signal (negative = inhibition / toxicity); conditions: time (h post infection): 48
Procedure: (§1)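 Triplicate dose-response (0.04 to 10 uM) of 11 top compounds in 3D bioprinted skin equivalents (submerged and ALI models) infected with GFP-HSV-1 K26 at MOI 0.1 and fixed at 48 hpi. GFP (virus) and tdTomato (fibroblast viability) signals are normalised to per-plate controls.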

[2] = test system: HSV-1 K26-GFP infected primary human skin cells; assay: % change of HSV-1 GFP signal vs untreated infected cells; higher = less antiviral inhibition; conditions: cell type: primary dermal fibroblasts, time (h post infection): 48
Procedure: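 2D primary donor-derived dermal fibroblasts infected with GFP-HSV-1 K26 at MOI 1, treated 1 h later with compound dilutions and read at 48 hpi on IncuCyte. GFP integrated intensity is normalised to mock-infected and untreated infected wells (% change; -100 = full inhibition).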

[3] = test system: HSV-1 K26-GFP infected 3D skin equivalent; assay: % change of tdTomato fibroblast signal relative to infected DMSO control; higher = higher signal (negative = inhibition / toxicity); conditions: time (h post infection): 48
Procedure: as §1

[4] = test system: primary dermal fibroblasts; assay: % change in live cells vs DMSO control; higher = less cytotoxic; conditions: time (h post treatment): 48
Procedure: (§2)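 Cytotoxicity in uninfected 2D primary donor keratinocytes (20 h post treatment) and fibroblasts (48 h post treatment), measured with NucSpot live/dead dyes on IncuCyte. Live cells are normalised to the 0.2% DMSO control and shown as % change. Three biological replicates for each of donors 3, 4 and 5.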

[5] = test system: primary keratinocytes; assay: as above; conditions: time (h post treatment): 20
Procedure: as §2

Nc1ccn([C@@H]2O[C@H](CO)[C@@H](O)C2(F)F)c(=O)n1 [Gemcitabine]
Conditions	% activity on HSV-1 GFP signal [%]	% change in live cells [%]	% change of HSV-1 GFP signal [%]	% change of tdTomato fibroblast signal [%]
[1], 0.041152 µM, model: ALI	-11.7 ± 50	–	–	–
[1], 0.041152 µM, model: submerged	-9.74 ± 4.5	–	–	–
[1], 0.123457 µM, model: ALI	-37.9 ± 9.5	–	–	–
[1], 0.123457 µM, model: submerged	-26.5 ± 9	–	–	–
[1], 0.37037 µM, model: ALI	-102 ± 1.4	–	–	–
[1], 0.37037 µM, model: submerged	-92.4 ± 1.9	–	–	–
[1], 1.111111 µM, model: ALI	-106 ± 8.3	–	–	–
[1], 1.111111 µM, model: submerged	-97 ± 2.7	–	–	–
[1], 3.33333 µM, model: ALI	-99.4 ± 8.2	–	–	–
[1], 3.33333 µM, model: submerged	-99 ± 3.6	–	–	–
[1], 10 µM, model: ALI	-102 ± 5.1	–	–	–
[1], 10 µM, model: submerged	-99.8 ± 4.7	–	–	–
[2], 0.001 µM, donor: 3	–	–	2.63 ± 9	–
[2], 0.003 µM, donor: 3	–	–	2.52 ± 8	–
[2], 0.003 µM, donor: 4	–	–	-2.11 ± 3.5	–
[2], 0.0091 µM, donor: 3	–	–	1.9 ± 13	–
[2], 0.0091 µM, donor: 4	–	–	-1.82 ± 3.8	–
[2], 0.0274 µM, donor: 3	–	–	-32.1 ± 10	–
[2], 0.0274 µM, donor: 4	–	–	-16.7 ± 10	–
[2], 0.0823 µM, donor: 3	–	–	-96.7 ± 3.6	–
[2], 0.0823 µM, donor: 4	–	–	-78 ± 21	–
[2], 0.2469 µM, donor: 3	–	–	-99.824 ± 0.023	–
[2], 0.2469 µM, donor: 4	–	–	-96.4 ± 6	–
[2], 0.7407 µM, donor: 3	–	–	-99.797 ± 0.099	–
[2], 0.7407 µM, donor: 4	–	–	-99.75 ± 0.28	–
[2], 2.2222 µM, donor: 3	–	–	-99.74 ± 0.14	–
[2], 2.2222 µM, donor: 4	–	–	-99.81 ± 0.17	–
[2], 6.6667 µM, donor: 3	–	–	-99.76 ± 0.19	–
[2], 6.6667 µM, donor: 4	–	–	-99.83 ± 0.13	–
[2], 20 µM, donor: 3	–	–	-99.73 ± 0.18	–
[2], 20 µM, donor: 4	–	–	-99.907 ± 0.068	–
[3], 0.041152 µM, model: ALI	–	–	–	-3.97 ± 2.9
[3], 0.041152 µM, model: submerged	–	–	–	-1.22 ± 7.7
[3], 0.123457 µM, model: ALI	–	–	–	-3.65 ± 2.6
[3], 0.123457 µM, model: submerged	–	–	–	-6.59 ± 3.1
[3], 0.37037 µM, model: ALI	–	–	–	-3.96 ± 9.1
[3], 0.37037 µM, model: submerged	–	–	–	-13.9 ± 4
[3], 1.111111 µM, model: ALI	–	–	–	-5.76 ± 7.3
[3], 1.111111 µM, model: submerged	–	–	–	-17.6 ± 3.4
[3], 3.33333 µM, model: ALI	–	–	–	-10.9 ± 1.4
[3], 3.33333 µM, model: submerged	–	–	–	-22.7 ± 4.1
[3], 10 µM, model: ALI	–	–	–	-5.25 ± 5.6
[3], 10 µM, model: submerged	–	–	–	-28.4 ± 4.2
[4], 0.082305 µM, donor: 3	–	-21.3 ± 11	–	–
[4], 0.082305 µM, donor: 4	–	-9.33 ± 5.5	–	–
[4], 0.082305 µM, donor: 5	–	-5 ± 8.2	–	–
[4], 0.246914 µM, donor: 3	–	-23.7 ± 14	–	–
[4], 0.246914 µM, donor: 4	–	-9.33 ± 9.3	–	–
[4], 0.246914 µM, donor: 5	–	-11.3 ± 12	–	–
[4], 0.740741 µM, donor: 3	–	-27.3 ± 15	–	–
[4], 0.740741 µM, donor: 4	–	-15.7 ± 16	–	–
[4], 0.740741 µM, donor: 5	–	-21.3 ± 9.9	–	–
[4], 2.22222 µM, donor: 3	–	-30.3 ± 16	–	–
[4], 2.22222 µM, donor: 4	–	-11.7 ± 11	–	–
[4], 2.22222 µM, donor: 5	–	-26.3 ± 12	–	–
[4], 6.66667 µM, donor: 3	–	-33.3 ± 19	–	–
[4], 6.66667 µM, donor: 4	–	-9.67 ± 9.6	–	–
[4], 6.66667 µM, donor: 5	–	-34.3 ± 12	–	–
[4], 20 µM, donor: 3	–	-38 ± 12	–	–
[4], 20 µM, donor: 4	–	-18 ± 16	–	–
[4], 20 µM, donor: 5	–	-43.3 ± 14	–	–
[4], 60 µM, donor: 3	–	-43.7 ± 22	–	–
[4], 60 µM, donor: 4	–	-19.7 ± 12	–	–
[4], 60 µM, donor: 5	–	-52.7 ± 5.8	–	–
[5], 0.082305 µM, donor: 3	–	-37.7 ± 5.5	–	–
[5], 0.082305 µM, donor: 4	–	-63 ± 4.6	–	–
[5], 0.082305 µM, donor: 5	–	-51.3 ± 3.5	–	–
[5], 0.246914 µM, donor: 3	–	-45.3 ± 6.5	–	–
[5], 0.246914 µM, donor: 4	–	-67.7 ± 12	–	–
[5], 0.246914 µM, donor: 5	–	-52.7 ± 5.1	–	–
[5], 0.740741 µM, donor: 3	–	-49.7 ± 3.8	–	–
[5], 0.740741 µM, donor: 4	–	-63.7 ± 14	–	–
[5], 0.740741 µM, donor: 5	–	-51.3 ± 8.6	–	–
[5], 2.22222 µM, donor: 3	–	-52.3 ± 7.8	–	–
[5], 2.22222 µM, donor: 4	–	-63.7 ± 13	–	–
[5], 2.22222 µM, donor: 5	–	-55.7 ± 6.5	–	–
[5], 6.66667 µM, donor: 3	–	-57.3 ± 9.4	–	–
[5], 6.66667 µM, donor: 4	–	-74.3 ± 11	–	–
[5], 6.66667 µM, donor: 5	–	-61 ± 7.8	–	–
[5], 20 µM, donor: 3	–	-75.7 ± 6.8	–	–
[5], 20 µM, donor: 4	–	-76.3 ± 13	–	–
[5], 20 µM, donor: 5	–	-70 ± 7.2	–	–
[5], 60 µM, donor: 3	–	-77.7 ± 2.3	–	–
[5], 60 µM, donor: 4	–	-87.3 ± 6.3	–	–
[5], 60 µM, donor: 5	–	-78.7 ± 6.7	–	–
